Laboratory results from paper PMC5740082, “Identification of a CARM1 Inhibitor with Potent In Vitro and In Vivo Activity in Preclinical Models of Multiple Myeloma” (Scientific Reports, 2017).
Read-outs that look alike come from different tables or passages of the source.

Tests used:
BT474 = test: Long term proliferation assay (15 days); format: cell-based; conditions: Homo sapiens, BT-474, 360 h, read-out: EZM2302 IC50 (absolute, long term proliferation); BT474, BREAST, day 15
Description: (§1) Long term (14–15 day) cell proliferation assays were performed using the method previously described with adjustments to initial seeding densities depending on growth characteristics for each cell line[54],[55]. For 6 day proliferation studies, see Supplementary Methods.
(§2) Supplementary Table S2. Long term proliferation IC50 values of cell lines dosed with EZM2302. A panel of cell lines was treated with EZM2302fo r 15 da ys in a long term proliferation assa y. Abs olute IC 50 values were calculated in GraphPad Pri sm (non -linear regression anal ysis, top of the curves were fixed to 100%) for each line at d ay 15 .

PC3 = test: Long term proliferation assay (15 days); format: cell-based; conditions: Homo sapiens, PC-3, 360 h, read-out: EZM2302 IC50 (absolute, long term proliferation); PC3, PROSTATE, day 15
Description: as §1, §2

UCSD-AML1 = test: Six-day cell proliferation assay (CellTiter-Glo); format: cell-based; conditions: 144 h; UCSD-AML1 (AML), 6 days; read-out: Average day 6 gIC50
Description: (§3) Six-day cell proliferation assay
(§4) Optimal cell seeding density was determined empirically for each cell lines by examining the gro wth of a wide ran ge o f seedin g densities in a 3 84-well formatto identify conditio ns that permitted maximal and continued proliferation for 6 days. Cells were plat ed in duplicate plates 24 hours before treatment with a 20- point two-fold dilution series of compound or 0.15%
(§5) DMSO. Plates were incubated for 6 da ys at 37°C in 5% CO2. Cells were th en l ysed with CellTiter-Glo (CTG) (Pr omega) and chemiluminescent sign al was detected with an appropriat e microplate reader. In addition, an untreated plate of cells was harvested at the time of compound addition (T0) to quantif y the initial cell densit y. CTG values obtained after 6 days of treatment were expressed as a percent of the T0 value and plotted against compound concentration. […]
(§6) Supplementary Table S 3. […] A p anel […]
(§7) of cell lines was treated with EZM2302fo r 6da ys in a proliferation ass a y. Cell densit y (as assessed b y CellTiter-Gl o) at da y 0 was compared to day 6 to det ermine growth IC 50 values , calculated us i n g a f our parameter dose response equation.
(§8) Cell Type According to Cell Type Category Cell L ine Name gIC50 Average day 6 Standard Replicates

RPMI-8226 = test: Six-day cell proliferation assay (CellTiter-Glo); format: cell-based; conditions: Homo sapiens, 144 h; RPMI-8226 (MM), 6 days; read-out: Average day 6 gIC50
Description: as §3, §4, §5, §6, §7, §8

SK-MM-2 = test: Six-day cell proliferation assay (CellTiter-Glo); format: cell-based; conditions: Homo sapiens, 144 h; SK-MM-2 (Plasma cell leukemia), 6 days; read-out: Average day 6 gIC50
Description: as §3, §4, §5, §6, §7, §8

SH-2 = test: Six-day cell proliferation assay (CellTiter-Glo); format: cell-based; conditions: 144 h; SH-2 (AML), 6 days; read-out: Average day 6 gIC50
Description: as §3, §4, §5, §6, §7, §8

SHI-1 = test: Six-day cell proliferation assay (CellTiter-Glo); format: cell-based; conditions: 144 h; SHI-1 (AML), 6 days; read-out: Average day 6 gIC50
Description: as §3, §4, §5, §6, §7, §8

U266 B1 = test: Six-day cell proliferation assay (CellTiter-Glo); format: cell-based; conditions: Homo sapiens, U-266, 144 h; U266 B1 (MM), 6 days; read-out: Average day 6 gIC50
Description: as §3, §4, §5, §6, §7, §8

NOMO-1 = test: Six-day cell proliferation assay (CellTiter-Glo); format: cell-based; conditions: Homo sapiens, 144 h; NOMO-1 (AML), 6 days; read-out: Average day 6 gIC50
Description: as §3, §4, §5, §6, §7, §8

TF-1 = test: Six-day cell proliferation assay (CellTiter-Glo); format: cell-based; conditions: Homo sapiens, 144 h; TF-1 (AML M6; Erythroleukemia), 6 days; read-out: Average day 6 gIC50
Description: as §3, §4, §5, §6, §7, §8

OPM-2 = test: Six-day cell proliferation assay (CellTiter-Glo); format: cell-based; conditions: Homo sapiens, 144 h; OPM-2 (MM), 6 days; read-out: Average day 6 gIC50
Description: as §3, §4, §5, §6, §7, §8

[1] = Plasma protein binding (equilibrium dialysis), rat plasma; format: in vitro ADME; conditions: Sprague-Dawley, pH 7.4
Description: Hepatocyte stability, plasma protein binding and cytochrome P450 assays were performed using standard procedures. Details can be found in Supplementary Methods. […]
Plasma protein binding was assessed b y equilibrium dial ysis, utilizing the HT-dial ysis cell format with a cellulose semi- permeable membran e (molecular wei ght cut-off of 5000 Da).
(pH 7.4) and 100% mixed gender pooled human, pooled male CD -1 mouse or Sprague-Dawle y rat plasma. The buffer solution was added to one s ide of the membrane and the plasma solution to the other side. Incubations were performed in duplicate for 16 h, at 37°C, in order to allow the compounds to reach equi librium. Haloperidol was incubated in parallel as the control compound for each speci es. At the end of the incubation time, samples were taken from both sides of the membrane. Following protein precipitation, the samples were anal yz ed b y LC-MS/MS using two sets of calibration standards for protein free (7 poi nts) and protein containi ng solutions (6 points). Samples were quantified using standard curves prepared in the equivalent matrix. The fraction unbound in plas ma (fu) was calculated us ing the followin g equ ation: […]

RPMI-8226 xenograft = test: RPMI-8226 multiple myeloma xenograft study; format: in vivo, CB-17 SCID mice
Description: For the in vivo efficacy studies, there were 8 mice per dose group and each mouse was inoculated subcutaneously at the right flank. All cells were suspended in a 0.2 mL mixture of base media and Matrigel at 1:1 for tumor development. RPMI-8226 cells were inoculated at 5 × 10^6 cells/mouse and treatment began when the mean tumor sizes reached 120 mm^3 (28 days post-inoculation). CB-17 SCID Mice were assigned into groups using a randomized block design. […] Body weights were measured twice a week for the duration of the study. Tumor size was measured twice weekly in two dimensions using a caliper, and the volume was expressed in cubic millimeters. Animals were euthanized 3 hours post-final dose, with blood and tissues collected for analysis.

[2] = system: 55 receptors, ion channels and transporters; test: ExpresSProfile (CEREP) screen; format: binding; conditions: 10 μM
Text: […]. […] […]. […] […].

[3] = system: PABP1 and SmB methylation in NCI-H929 cells; test: Western blot of cellular methyl marks, NCI-H929; conditions: Homo sapiens, NCI-H929, 96 h
Description: Methylation changes were measured at the well-characterized CARM1 substrates PABP1 and SmB[1],[10]. Changes in overall levels of asymmetric dimethyl arginine (aDMA) were assessed with an antibody that detects a generic aDMA motif. Levels of methylated analytes were quantified by densitometry and ratios of methylated to total protein were calculated to determine the cell biochemical IC50 values.
Cultured cells in linear/log phase growth were split to a seeding density of 2e5 cells/mL in 2–20mLs of media, depending on the yield required at the end of the growth period. Compound was diluted in DMSO and added to each culture vessel with a final DMSO concentration of 0.2%. Cells were allowed to grow for 96 hours. At the conclusion of each treatment period, cells were harvested by centrifugation (5 minutes, 1200 rpm), and cell pellets were rinsed once with PBS before being frozen on dry ice pending further processing.
Quantification of Western blots was performed using infra-red emitting secondary antibodies and detection with an ODYSSEY infrared imaging system.

CNC[C@@H](O)COc1ccc(Cl)c(-c2nc(-c3c(C)noc3C)c(C)c(N3CC4(CCN(C(=O)OC)CC4)C3)n2)c1 [EZM2302]
IC50 (BT474): > 20 µM
IC50 (PC3): > 20 µM
IC50 (UCSD-AML1): > 36.7 µM
IC50 (RPMI-8226): > 26.1 µM
IC50 (SK-MM-2): 20.4 µM
IC50 (SH-2): > 36.7 µM
IC50 (SHI-1): > 36 µM
IC50 (U266 B1): 22.1 µM
IC50 (NOMO-1): > 36.5 µM
IC50 (TF-1): 25.9 µM
IC50 (OPM-2): 4.95 µM
fraction unbound at 16 h, 5 µM [1]: 0.74
Tumor growth inhibition (TGI) (RPMI-8226 xenograft; 37.5 mg/kg BID oral, 21 days): 45%
increase in unmethylated SmB (SmBme0) in tumor (RPMI-8226 xenograft; 37.5 mg/kg BID oral, day 21): 8 fold
maximal inhibition of aDMA levels in tumor (RPMI-8226 xenograft; 75 mg/kg BID oral, day 21): 65%
Methylated PABP1 in tumor (RPMI-8226 xenograft; 75 mg/kg and higher dose groups, day 21): undetectable in most animals
increase in unmethylated SmB (SmBme0) in tumor (RPMI-8226 xenograft; 150 mg/kg BID oral, day 21): 14 fold
tolerability (RPMI-8226 xenograft; 150 mg/kg and below BID oral, 21 days): well tolerated
Tumor growth inhibition (TGI) (RPMI-8226 xenograft; 300 mg/kg BID oral, 21 days): 63%
body weight (RPMI-8226 xenograft; 300 mg/kg BID oral, 21 days): some body weight loss
weight loss leading to dosing holidays (RPMI-8226 xenograft; 6 of 8 animals in the 300 mg/kg group, holidays of 2 to 8 days): greater than 8%
day of maximal changes in methylation in tumor tissue (RPMI-8226 xenograft; 150 and 300 mg/kg BID, sampled after 2, 4 and 8 days): 4 days
inhibition or stimulation in any of the assays except KOP receptor [2]: ≤ 40%
IC50 ([3]; read-out: IC50, PABP1me2a): 0.009 µM
IC50 ([3]; read-out: IC50, SmBme0): 0.031 µM
